Assay results: publication PMC4410182 (Nature communications, 2015)

Columns and labels:
A. borkumensis YdaH = target: T1, A. borkumensis YdaH (Alcanivorax borkumensis, UniProt Q0VR69); assay: isothermal titration calorimetry; format: binding
T1 sequence (Q0VR69 1-492): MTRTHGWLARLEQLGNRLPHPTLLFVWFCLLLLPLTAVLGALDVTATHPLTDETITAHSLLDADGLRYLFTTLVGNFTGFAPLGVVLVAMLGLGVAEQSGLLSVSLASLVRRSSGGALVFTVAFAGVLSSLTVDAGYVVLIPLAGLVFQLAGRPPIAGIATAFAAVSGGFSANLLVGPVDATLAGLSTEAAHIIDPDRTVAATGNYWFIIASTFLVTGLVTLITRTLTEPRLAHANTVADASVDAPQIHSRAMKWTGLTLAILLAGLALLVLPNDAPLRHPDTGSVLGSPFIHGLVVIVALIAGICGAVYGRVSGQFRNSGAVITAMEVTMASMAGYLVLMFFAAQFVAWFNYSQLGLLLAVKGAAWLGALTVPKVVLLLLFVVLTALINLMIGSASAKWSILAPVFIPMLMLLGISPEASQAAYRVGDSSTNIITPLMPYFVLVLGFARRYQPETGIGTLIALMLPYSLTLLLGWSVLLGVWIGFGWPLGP

[1] = target: A. borkumensis YdaH transporter (Alcanivorax borkumensis) (UniProt Q0VR69); assay: SEC

Kd (A. borkumensis YdaH) [nM] | Compound | stoichiometry N [1]
7040 ± 540 | Nc1ccc(S(=O)(=O)Nc2ncccn2)cc1 [sulfadiazine] | –
410 ± 30 | Cc1cc(C)nc(NS(=O)(=O)c2ccc(N)cc2)n1 [sulfamethazine] | –
600 ± 20 | Nc1ccc(S(=O)(=O)Nc2nccs2)cc1 [sulfathiazole] | –
– | A. borkumensis YdaH transporter (from UniProt Q0VR69 1-492) (natural protein) | 2
